Data as given in patent US20210386367A1, “DEVICES AND SYSTEMS FOR GASTROINTESTINAL MICROBIOME DETECTION AND MANIPULATION” (Progenity, Inc., priority 2018, published 2021).
Values after ≈ are worked out from the molar mass of the structure shown. Values joined by “and” are separate entries in the source; they are usually repeats but may differ in a detail not shown here. Equal values may be shown once. Read-outs that look alike come from different tables or passages of the source.

Columns and labels:
Assay type in all cases: cell-based
[1] = system: Streptococcus spp. clinical isolates; test: MIC distribution against clinical isolates
Source text: (n=19 S. pyogenes, n=20 S. agalactiae and n=20 Viridans group Streptococcus) clinical isolates (μg/mL).
(§1) As used herein, “minimum inhibitory concentration” or “MIC” refers to the lowest concentration of an antimicrobial agent, for example, an antimicrobial agent as described herein, required to inhibit the growth of an organism. […] “MIC90” represents the MIC value at which ≥90% of the strains within a test population are inhibited; the 90th percentile.
(§2) Many susceptibility testing methods are known in the art and can be used as described herein (see, e.g., Jorgensen and Ferraro (2009) Clinical Infectious Diseases 49:1749-1755; and Maurer et al. (2017) Infectious Disease Reports 9:6839; the entire contents of each of the foregoing are incorporated herein by reference). For example, antimicrobial susceptibility can be determined using conventional culture based methods such as the broth or agar dilution test. In these dilution tests, the bacterial isolate of interest is inoculated onto different media that include serial dilutions of an antimicrobial agent, and incubated under appropriate conditions (e.g., overnight at 37° C.) to allow for growth to occur. Following the incubation period, the media is examined to determine bacterial growth. The lowest concentration of antibiotic that prevents growth represents the minimal inhibitory concentration (MIC). Broth dilution tests can be miniaturized and mechanized allowing for reproducibility and high throughput.

[2] = system: Streptococcus pyogenes clinical isolates; test: MIC distribution against clinical isolates
Source text: as §1, §2

[3] = system: Viridans group Streptococci clinical isolates; test: MIC distribution against clinical isolates; conditions: 15 Viridans group Streptococci isolates
Source text: as §1, §2

Enterococcus faecalis = test: Broth microdilution MIC, 50 clinical isolates
Outline: (§3)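 Medium: cation-adjusted MHB, plus 3% lysed horse blood for streptococci, which were incubated with CO2 planchets. Final inoculum approx. 5×10^5 CFU/mL; serial two-fold drug dilutions per CLSI.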

Staphylococcus aureus = test: Broth microdilution MIC, 50 clinical isolates (28 MRSA)
Outline: as §3

Streptococcus spp. = test: Broth microdilution MIC, 54 clinical isolates; conditions: for Mode: modal MIC
Experimental: (§4) Minimal inhibitory concentration (MIC) values were determined by broth microdilution or agar dilution in accordance with guidelines from the Clinical and Laboratory Standards Institute (CLSI; (1) “Methods for Dilution Antimicrobial Susceptibility Tests for Bacteria That Grow Aerobically; Approved Standard; 11th ed.” CLSI standard M07-A11, 2018; (2) “Performance Standards for Antimicrobial Susceptibility Testing; Twenty-Eighth Informational Supplement,” CLSI document M100-S28, 2018; and (3) “Methods for Antimicrobial Susceptibility Testing of Anaerobic Bacteria; Approved Standard—Eighth Edition,” CLSI document M11-A8, 2012).
(§5) Tested aerobically by broth microdilution: • Escherichia coli, n=50 • Klebsiella spp., n=50 • Pseudomonas aeruginosa, n=50 • Streptococcus spp., n=50 • Staphylococcus aureus, n=50 • Enterococcus faecalis, n=50 • Enterobacter aerogenes, n=50 • Proteus mirabilis, n=50
(§6) Broth microdilution testing of aerobic bacteria was conducted in cation-adjusted Mueller Hinton broth (MHBII). For testing streptococci, lysed horse blood (LHB) was added to MHBII broth at a final concentration of 3%. Where LHB was used, it was added after filtering.
(§7) Broth microdilution susceptibility testing in 96-well microplates was conducted in accordance with CLSI methods (1) and (2). Automated liquid handlers were used to conduct serial dilutions and liquid transfers, including the Multidrop 384 (Labsystems, Helsinki, Finland), Biomek 2000, and the Biomek FX (Beckman Coulter, Fullerton, Calif.). All wells in columns 2 through 12 of a standard 96-well microdilution plate (Costar 3795) were filled with 150 μL of the appropriate diluent. Then, 300 μL of the test agents were added to the wells of column 1 of the plates at 100× the highest final concentration to be tested. Serial two-fold dilutions were made across the rows through column 11 using the Biomek 2000. The wells of column 12 contained no drug and served as the growth control wells. This plate served as the “mother plate” from which MIC assay plates or “daughter plates” were made.
(§8) The daughter plates were loaded with 190 μL per well of the appropriate medium using the Multidrop 384. The daughter plates were created using the Biomek FX which transferred 2 μL of drug solution from each well of a mother plate to each corresponding well of the daughter plate in a single step. A standardized inoculum of each test organism was prepared per CLSI methods (1) to equal a 0.5 McFarland standard, followed by a dilution of 1:20 for aerobes and 1:10 for anaerobes. The plates were then inoculated with 10 μL of the diluted inoculum using the Biomek 2000 from low to high drug concentration, resulting in a final concentration of approximately 5×10^5 CFU/mL per well. An un-inoculated plate was incubated in parallel for each medium for the purpose of assessing solubility of the drug in the test media.
(§9) Inoculated plates were stacked 3 or 4 high, covered with a sterile lid on the top plate, placed into boxes with CO2 planchets (streptococci) or plastic bags (all other isolates). Plates were incubated at 35° C. for 16-24 hr in ambient air for aerobes or for 42-48 hr in the anaerobic environment of the Bactron II anaerobe chamber (Sheldon Manufacturing Co.; Cornelius, Oreg.). Following incubation, the microplates were removed from the incubator and viewed from the bottom using a plate viewer. The MIC values were read and recorded as the lowest concentration of drug that inhibited visible growth of the organism as per CLSI methods (1) and (2).

Streptococcus agalactiae = test: Broth microdilution MIC, 20 clinical isolates; conditions: for Mode: modal MIC
Experimental: as §4, §5, §6, §7, §8, §9

[4] = system: Viridans group Streptococcus; test: Broth microdilution MIC, 15 clinical isolates; conditions: for Mode: modal MIC
Experimental: as §4, §5, §6, §7, §8, §9

[5] = MIC 1 μg/mL, 54 Streptococcus spp. isolates
[6] = 54 Streptococcus spp. clinical isolates
[7] = 20 Streptococcus agalactiae clinical isolates
[8] = 15 Viridans group Streptococci clinical isolates
[9] = MIC 0.015 μg/mL, 54 Streptococcus spp. isolates
[10] = MIC 0.03 μg/mL, 54 Streptococcus spp. isolates
[11] = MIC 0.06 μg/mL, 54 Streptococcus spp. isolates
[12] = MIC 2 μg/mL, 54 Streptococcus spp. isolates
[13] = MIC 4 μg/mL, 54 Streptococcus spp. isolates
[14] = MIC 0.03 μg/mL, 19 S. pyogenes isolates
[15] = MIC 0.06 μg/mL, 19 S. pyogenes isolates

Compound: CN[C@H](CC(C)C)C(=O)N[C@H]1C(=O)N[C@@H](CC(N)=O)C(=O)N[C@H]2C(=O)N[C@H]3C(=O)N[C@H](C(=O)N[C@H](C(=O)O)c4cc(O)cc(O)c4-c4cc3ccc4O)[C@H](O)c3ccc(c(Cl)c3)Oc3cc2cc(c3O[C@@H]2O[C@H](CO)[C@@H](O)[C@H](O)[C@H]2O[C@H]2C[C@](C)(N)[C@H](O)[C@H](C)O2)Oc2ccc(cc2Cl)[C@H]1O [vancomycin, Vancomycin]
- Cumulative percentage of isolates inhibited at MIC [1, 5]: 100.0%
- Cumulative percentage of isolates inhibited at MIC ([1]; listed as VAN): 50.0% and 96.3%
- Cumulative percentage of isolates inhibited at MIC ([2]; listed as VAN): 89.5% and 100.0%
- Cumulative percentage of isolates inhibited at MIC ([3]; MIC 1 μg/mL): 100.0%
- Number of test isolates at MIC ([3]; MIC 1 μg/mL): 1
- % R (Enterococcus faecalis): 26%
- % S (Enterococcus faecalis): 74% ^
- Mode (Enterococcus faecalis): 0.5 µg/mL
- MIC50 (Enterococcus faecalis; Enterococcus faecalis): 1 mg/L (≈ 0.69 µM)
- MIC90 (Enterococcus faecalis; Enterococcus faecalis): > 32 mg/L
- % R (Enterococcus faecalis; listed as VAN): 26% ^
- % S (Staphylococcus aureus): 100%
- MIC range (Staphylococcus aureus): 0.25 to 1 mg/L
- Mode (Staphylococcus aureus): 0.5 µg/mL
- MIC50 (Staphylococcus aureus; Staphylococcus aureus): 0.5 mg/L (≈ 0.345 µM)
- MIC90 (Staphylococcus aureus; Staphylococcus aureus): 1 mg/L (≈ 0.69 µM)
- MIC range (Streptococcus spp.; [6]): 0.25 to 1 mg/L
- % S (Streptococcus spp.; 54 Streptococcus spp. clinical isolates, MXF by FDA breakpoints): 100%
- MIC50 (Streptococcus spp.; Streptococcus): 0.25 mg/L (≈ 0.173 µM)
- MIC90 (Streptococcus spp.; Streptococcus): 0.5 mg/L (≈ 0.345 µM)
- Mode (Streptococcus spp.; [6]): 0.25 µg/mL
- MIC range (Streptococcus agalactiae; [7]): 0.25 to 1 mg/L
- % S (Streptococcus agalactiae; 20 Streptococcus agalactiae clinical isolates, MXF by FDA breakpoints): 100%
- MIC50 (Streptococcus agalactiae; Streptococcus agalactiae): 0.5 mg/L (≈ 0.345 µM)
- MIC90 (Streptococcus agalactiae; Streptococcus agalactiae): 0.5 mg/L (≈ 0.345 µM)
- Mode (Streptococcus agalactiae; [7]): 0.5 µg/mL
- MIC range [4, 8]: 0.25 to 1 mg/L
- % S ([4]; 15 Viridans group Streptococci clinical isolates, MXF by FDA breakpoints): 100%
- MIC50 ([4]; Streptococcus): 0.5 mg/L (≈ 0.345 µM)
- MIC90 ([4]; Streptococcus): 0.5 mg/L (≈ 0.345 µM)
- Mode [4, 8]: 0.5 µg/mL

Compound: piperacillin/tazobactam [piperacillin-tazobactam]
- Cumulative percentage of isolates inhibited at MIC [1, 9]: 1.9%
- Number of test isolates at MIC [1, 9]: 1
- Cumulative percentage of isolates inhibited at MIC [1, 10]: 14.8%
- Number of test isolates at MIC [1, 10]: 7
- Cumulative percentage of isolates inhibited at MIC [1, 11]: 44.4%
- Number of test isolates at MIC [1, 11]: 16
- Cumulative percentage of isolates inhibited at MIC [1, 5]: 90.7%
- Number of test isolates at MIC [1, 5]: 1
- Cumulative percentage of isolates inhibited at MIC [1, 12]: 94.4%
- Number of test isolates at MIC [1, 12]: 2
- Cumulative percentage of isolates inhibited at MIC [1, 13]: 100.0%
- Number of test isolates at MIC [1, 13]: 3
- Cumulative percentage of isolates inhibited at MIC [2, 14]: 21.1%
- Number of test isolates at MIC [2, 14]: 4
- Cumulative percentage of isolates inhibited at MIC [2, 15]: 89.5%
- Number of test isolates at MIC [2, 15]: 13
- Number of test isolates at MIC ([2]; MIC […], 19 S. pyogenes isolates): 1
- Cumulative percentage of isolates inhibited at MIC ([3]; MIC 0.015 μg/mL): 6.7%
- Number of test isolates at MIC ([3]; MIC 0.015 μg/mL): 1
- Cumulative percentage of isolates inhibited at MIC ([3]; MIC 0.03 μg/mL): 26.7%
- Number of test isolates at MIC ([3]; MIC 0.03 μg/mL): 3
- Cumulative percentage of isolates inhibited at MIC ([3]; MIC 0.06 μg/mL): 46.7%
- Number of test isolates at MIC ([3]; MIC 0.06 μg/mL): 3
- Cumulative percentage of isolates inhibited at MIC ([3]; MIC 1 μg/mL): 66.7%
- Number of test isolates at MIC ([3]; MIC 1 μg/mL): 1
- Cumulative percentage of isolates inhibited at MIC ([3]; MIC 2 μg/mL): 80.0%
- Number of test isolates at MIC ([3]; MIC 2 μg/mL): 2
- Cumulative percentage of isolates inhibited at MIC ([3]; MIC 4 μg/mL): 100.0%
- Number of test isolates at MIC ([3]; MIC 4 μg/mL): 3
- Number of test isolates at MIC ([3]; MIC […]): 1
- MIC50 (Enterococcus faecalis): 4 mg/L
- MIC90 (Enterococcus faecalis): 8 mg/L
- Mode (Enterococcus faecalis): 4 µg/mL
- MIC50 (Staphylococcus aureus): 8 mg/L
- MIC90 (Staphylococcus aureus): 64 mg/L
- Mode (Staphylococcus aureus): 64 µg/mL
- % R (Staphylococcus aureus; FDA breakpoints): 48% ^1
- % S (Staphylococcus aureus; FDA breakpoints): 52% ^1
- MIC50 (Streptococcus spp.; [6]): 0.12 mg/L
- MIC90 (Streptococcus spp.; [6]): 1 mg/L
- MIC range (Streptococcus spp.; [6]): 0.015 to 4 mg/L
- Mode (Streptococcus spp.; [6]): 0.25 µg/mL
- MIC50 (Streptococcus agalactiae; [7]): 0.25 mg/L
- MIC90 (Streptococcus agalactiae; [7]): 0.25 mg/L
- MIC range (Streptococcus agalactiae; [7]): 0.12 to 0.25 mg/L
- Mode (Streptococcus agalactiae; [7]): 0.25 µg/mL
- MIC50 [4, 8]: 0.12 mg/L
- MIC90 [4, 8]: 4 mg/L
- MIC range [4, 8]: 0.015 to 4 mg/L
- Mode [4, 8]: 0.06 µg/mL
